Series [1] in a line: Cytotoxicity against African green monkey Vero cells assessed as cell viability after 3 days by XTT assay. Format: cell-based. As to conditions: chlorocebus sabaeus. Background: Tetrazolium assays rely on reduction of a dye to a coloured formazan, in cell work by metabolically active cells.
In series [2] the test system is Mycobacterium tuberculosis. Kind of series: Antimycobacterial activity against Mycobacterium tuberculosis H37Ra infected in BALB/c mouse assessed as reduction of bacterial load in spleen at 25 mg/kg, po administered for 2 weeks started on day 4 post bacterial infection measured 3 days post last dose. Format: functional.
The subject of series [3] is Mus musculus. Kind of series: Toxicity in BALB/c mouse infected with Mycobacterium tuberculosis H37Ra assessed as change in cholesterol level in serum at 6.25 to 25 mg/kg, po administered for 2 weeks started on day 4 post bacterial infection. The series is classed as organism-based. Particulars: in vivo, 336 h.
The test system of series [4] is Mus musculus. The series can be described thus: Toxicity in BALB/c mouse infected with Mycobacterium tuberculosis H37Ra assessed as change in creatinine level in serum at 6.25 to 25 mg/kg, po administered for 2 weeks started on day 4 post bacterial infection in presence of isoniazid. Format: organism-based. Particulars: in vivo, 336 h.
Series [5] deals with Mus musculus. Kind of series: Toxicity in BALB/c mouse infected with Mycobacterium tuberculosis H37Ra assessed as behavioral changes at 6.25 to 25 mg/kg, po administered for 2 weeks started on day 4 post bacterial infection. Format: organism-based. As to conditions: in vivo, 336 h.
Series [6] has as its system Mus musculus. The series can be described thus: Toxicity in BALB/c mouse infected with Mycobacterium tuberculosis H37Ra assessed as change in phosphate level in serum at 6.25 to 25 mg/kg, po administered for 2 weeks started on day 4 post bacterial infection. The series is classed as organism-based. Particulars: in vivo, 336 h.
Series [7] concerns Mycobacterium tuberculosis. The series can be described thus: Antimycobacterial activity against Mycobacterium tuberculosis H37Ra assessed as inhibition of mycobacterial replication at 100 ug/ml after 6 days by microplate Alamar blue assay. The series is classed as functional. As to conditions: 144 h. For orientation: Alamar Blue is a resazurin reagent that responds to reducing activity.

The test system of series [8] is Mus musculus. Kind of series: Toxicity in BALB/c mouse infected with Mycobacterium tuberculosis H37Ra assessed as change in calcium level in serum at 6.25 to 25 mg/kg, po administered for 2 weeks started on day 4 post bacterial infection. As to conditions: in vivo, 336 h. The series is classed as organism-based.
The subject of series [9] is Mycobacterium tuberculosis. Kind of series: Antimycobacterial activity against Mycobacterium tuberculosis H37Ra infected in BALB/c mouse assessed as reduction of bacterial load in liver at 12.5 mg/kg, po administered for 2 weeks started on day 4 post bacterial infection measured 3 days post last dose co-treated with 1 mg/kg, po isoniazid. The series is classed as functional.

The subject of series [10] is Mus musculus. Kind of series: Toxicity in BALB/c mouse infected with Mycobacterium tuberculosis H37Ra assessed as weight loss at 6.25 to 25 mg/kg, po administered for 2 weeks started on day 4 post bacterial infection in presence of isoniazid. Format: organism-based. As to conditions: in vivo, 336 h.
Series [11] relates to Mycobacterium tuberculosis. Kind of series: Antimycobacterial activity against Mycobacterium tuberculosis H37Ra infected in BALB/c mouse assessed as reduction of bacterial load in liver at 6.25 to 6.25 mg/kg, po administered for 2 weeks started on day 4 post bacterial infection measured 3 days post last dose. Format: functional, organism-based.
The subject of series [12] is Mus musculus. The series can be described thus: Toxicity in BALB/c mouse infected with Mycobacterium tuberculosis H37Ra assessed as weight loss at 6.25 to 25 mg/kg, po administered for 2 weeks started on day 4 post bacterial infection. Format: organism-based. Particulars: in vivo, 336 h.

Calls of active or inactive are those of the source. The calls are words filed in the database; no cut-off is given here.

Turning to `CCCCCC#Cc1c[nH]c(=O)nc1N`, the CC50 – broadly, the concentration that lowers cell viability or growth by half – at 72 h in [1] was > 200 µg/mL. Besides, in series [2], the inhibition in vivo (usually the change of the read-out against control, counted positive when it falls) at 25 mg/kg stood at 51%. The Activity result in the series with Mus musculus [3], in the series with Mus musculus [4], with Mus musculus [5], in the series on Mus musculus [6], with Mus musculus [8] and in the series with Mus musculus [10] was “Non-toxic” each time. Besides, the Activity result with Mus musculus [12] is recorded as “Non-toxic”. Also, the inhibition (in general, the share of the control response that was lost under treatment) at 100 µg/mL in [7] was 100%. Also, the “inhibition (INH)” value in [9] was 96%. Also, the outcome in [11] was inactive.

The values above are taken from ChEMBL document CHEMBL3784999, “Investigation of 4-amino-5-alkynylpyrimidine-2(1H)-ones as anti-mycobacterial agents” (Bioorg Med Chem, 2016).
